Experimental data: patent publication US9782464B2, “Methods and compositions for inhibiting diseases of the central nervous system” (Board of Regents of the University of Nebraska, priority 2008, dated 2017)

How the values were obtained:
Assay type in all cases: cell-based, mouse
[1] = test system: effector T cells; assay: Treg inhibition of CD3-mediated effector T cell proliferation; details: Treg from FoxP3-GFP donors, ratio of 1:1
Procedure: Seven days following treatment, mice were sacrificed and single cell suspensions were prepared from inguinal lymph nodes and spleens. CD4+ T cell populations from spleens and lymph nodes were enriched by negative selection with CD4-enrichment columns (R & D Systems) followed by CD25-PE positive selection with AutoMACS (Miltenyi Biotec). […] Proliferation and inhibition assays were performed as described. MPTP-intoxicated mice received an i.v. tail injection of 5×10^7 SPC or 1×10^6 Treg in 0.25 ml of HBSS.

[2] = test system: SPC (spleen cells); assay: Antigen-specific 3H-thymidine proliferation of SPC from immunized mice
[3] = test system: anti-CD3 stimulated T cells; assay: PI uptake cytotoxicity of anti-CD3 stimulated T cells (flow cytometry); details: 24 hours
Procedure: To assess α-Syn-mediated cytotoxicity, purified T cells were stimulated with anti-CD3 and cultured at a density of 1×10^6 cells/ml for 24 hours in media alone or in the presence of 4YSyn or N-4YSyn at concentrations of 1, 3, 10, or 30 μg/ml. Cells were stained with PI, washed and the percentages of PI^+ dead cells and MFI were analyzed by flow cytometry.

[4] = test system: TNF-α; assay: Cytometric bead array of T cells restimulated with antigen; details: T cells from N-4YSyn-immunized donors restimulated in vitro
Procedure: Triplicate co-cultures of antigen presenting cells (APC) and T cells from PBS, 4YSyn- and N-4YSyn-immunized mice were stimulated with 4YSyn or N-4YSyn. After 24 hours of culture, 50 μl samples were collected, centrifuged, and supernatants frozen at −80° C. until utilized. Frozen supernatants were thawed only once and analyzed using the BD Cytometric Bead Array Mouse Th1/Th2 Kit (BD Biosciences, San Jose, Calif.) according to the manufacturer's instructions.

With “N-4YSyn: peroxynitrite-nitrated recombinant His-tagged C-terminal 40 aa fragment of mouse α-Syn” the “inhibition of effector T cell proliferation to anti-CD3 stimulation by Treg” value [1] was 20%, the “proliferative response of SPC to in vitro stimulation with the antigen” value ([2]; B6 mice immunized with N-4YSyn/PBS without adjuvant) was “significant lymphocyte proliferative response” and the “proliferative response of SPC to in vitro stimulation with the antigen” value ([2]; B10.BR mice immunized in CFA/IFA) was “significant proliferative responses”. For the same substance, the “% PI+ T cells” value ([3]; 1 μg/ml) was 15.9%, the “MFI of PI-stained T cells” value ([3]; 1 μg/ml) was 42.8 and the “% PI+ T cells” value ([3]; 3 μg/ml) was 17.9%. The “MFI of PI-stained T cells” value ([3]; 3 μg/ml) was 58.7, the “% PI+ T cells” value ([3]; 10 μg/ml) was 47.8% and the “MFI of PI-stained T cells” value ([3]; 10 μg/ml) was 71.6. For the same substance, the “% PI+ T cells” value ([3]; 30 μg/ml) was 91.3%, the “MFI of PI-stained T cells” value ([3]; 30 μg/ml) was 106.1 and the TNF-α levels [4] was 26.0 ± 1.2 pg/mL.
